Measurements published in patent US8202865B2, “Oxadiazole derivatives” (Merck Serono SA, priority 2007, dated 2012).
Where a name gives a salt, the structure may show the parent alone.

Key:
S1P1 [1] = molecular target: T1, S1P1 (Homo sapiens, UniProt P21453); assay: Receptor binding assay, [33P]sphingosine 1-phosphate, membranes, WGA SPA beads; conditions: membranes from CHO cells expressing S1P1; 25 pM [33P]S1P; 60 min RT
T1 construct: expressed in transfected cells; host or cells: CHO cells (membranes)
T1 sequence (P21453 whole entry, species assumed): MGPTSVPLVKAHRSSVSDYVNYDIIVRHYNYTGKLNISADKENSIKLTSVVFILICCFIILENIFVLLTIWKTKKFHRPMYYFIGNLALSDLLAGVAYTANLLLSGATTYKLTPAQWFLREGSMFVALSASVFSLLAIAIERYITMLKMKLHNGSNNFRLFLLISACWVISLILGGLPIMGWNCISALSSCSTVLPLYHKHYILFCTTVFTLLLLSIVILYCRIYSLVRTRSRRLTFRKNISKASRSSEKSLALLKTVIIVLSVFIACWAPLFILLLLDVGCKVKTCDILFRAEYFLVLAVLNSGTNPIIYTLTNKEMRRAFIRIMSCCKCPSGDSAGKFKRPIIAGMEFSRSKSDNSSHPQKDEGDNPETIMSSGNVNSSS
Protocol: (§1) Receptor binding assay: Membranes were prepared from CHO cells expressing S1P1 or S1P3 for use in ligand and […] binding studies. Cells were suspended in 50 mM TRIS, pH 7.4, 2 mM EDTA, 250 mM Sucrose (buffer A) and 1× Complete protease inhibitor cocktail (Roche), and disrupted at 4° C. by N2 decompression using a cell disruption bomb (Parr Instrument). Following centrifugation at 1000 RPM for 10 min at 4° C., the supernatant was suspended in buffer A and centrifuged again at 19000 RPM for 60 min at 4° C. The pellet was then suspended in 10 mM HEPES, pH 7.4, 1 mM EDTA, 250 mM Sucrose (Buffer B), and 1× Complete EDTA-free protease inhibitor cocktail and homogenized using a potter. Membranes were flash frozen in liquid N2 and stored at −80° C. [33P]sphingosine 1-phosphate (3000 Ci/mmol; American Radiolabeled Chemicals, Inc.) was added to test compounds in DMSO. Membranes and WGA SPA beads (GE Healthcare) were added to give a final volume of 100 μl in 96-well plates with assay concentrations of 25 pM or 10 pM [33P]sphingosine 1-phosphate (respectively for S1P1 or S1P3), 50 mM HEPES, pH 7.5, 5 mM MgCl2, 100 mM NaCl, 0.4% fatty acid-free BSA, 1-5 μg/well of proteins and 100 μg/well of WGA SPA beads. Binding was performed for 60 min at RT on a shaker and bound radioactivity was measured on a PerkinElmer 1450 MicroBeta counter. Specific binding was calculated by subtracting remaining radioactivity in the presence of 1000-fold excess of unlabeled S1P. Binding data were analyzed using the GraphPad Prism program.

S1P3 = molecular target: T2, S1P3 (Homo sapiens, UniProt Q99500); assay: 35S-GTPγS binding, S1P3 membranes; type: biochemical; conditions: membranes from CHO cells expressing S1P3; 60 min 30° C.
T2 construct: expressed in transfected cells; host or cells: CHO cells (membranes)
T2 sequence (Q99500 whole entry, species assumed): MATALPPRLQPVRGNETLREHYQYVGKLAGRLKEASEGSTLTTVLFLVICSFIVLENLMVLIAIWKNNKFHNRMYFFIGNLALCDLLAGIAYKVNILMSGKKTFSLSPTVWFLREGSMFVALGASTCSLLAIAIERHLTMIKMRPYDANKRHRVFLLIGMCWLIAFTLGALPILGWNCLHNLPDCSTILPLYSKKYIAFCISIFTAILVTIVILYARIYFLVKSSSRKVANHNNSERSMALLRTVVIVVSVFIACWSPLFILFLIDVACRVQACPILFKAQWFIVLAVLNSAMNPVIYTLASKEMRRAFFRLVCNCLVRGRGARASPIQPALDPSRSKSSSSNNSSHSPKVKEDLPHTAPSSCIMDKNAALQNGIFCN
Protocol: as §1
Measurements of ^35S-GTPγS Binding: Membranes (1 to 10 μg protein) prepared as described above, were incubated in 96-well Scintiplates (PerkinElmer) with test compounds diluted in DMSO, in 180 μl of 20 mM HEPES, pH 7.4, 10 mM MgCl2, 2 μg/well Saponin, 0.2% fatty acid free BSA (Assay buffer), 140 mM NaCl and 1.7 μM GDP. The assay was initiated with the addition of 20 μl of 1.5 nM [35S]-GTPγS (1100 Ci/mmol; GE Healthcare) in assay buffer. After 60 min incubation at 30° C. on a shaker, plates were centrifuged for 10 min at 2000 RPM. Supernatant was discarded and membrane bound radioactivity was measured on a PerkinElmer 1450 MicroBeta counter. Triplicate samples were averaged and expressed as % response relative to S1P activation in absence of compound (n=2).

S1P1 [2] = molecular target: T1, S1P1; assay: 35S-GTPγS binding, S1P1 membranes; type: biochemical; conditions: membranes from CHO cells expressing S1P1; 60 min 30° C.
In short: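 CHO-cell membranes expressing S1P1 or S1P3 (1-10 μg) incubated with compounds in 20 mM HEPES pH 7.4, 10 mM MgCl2, 140 mM NaCl, saponin, 0.2% BSA, 1.7 μM GDP and [35S]-GTPγS (20 μl of 1.5 nM added), 60 min at 30° C. Bound radioactivity expressed as % of S1P activation.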

Structure (SMILES) | Ki (S1P1 [1]) [nM] | EC50 (S1P3) [nM] | EC50 (S1P1 [2]) [nM]
COc1cc(-c2nc(-c3ccc(C(=O)O)c(F)c3)no2)ccc1-c1cscc1C [Example 12, 2-fluoro-4-{5-[3-methoxy-4-(4-methyl-3-thienyl)phenyl]-1,2,4-oxadiazol-3-yl}benzoic acid] | 60 | > 30000 | 148
COc1cc(-c2nc(-c3ccc(C(=O)O)c(F)c3)no2)ccc1-c1ccccc1C [Example 13, 2-fluoro-4-[5-(2-methoxy-2′-methylbiphenyl-4-yl)-1,2,4-oxadiazol-3-yl]benzoic acid] | 130 | > 30000 | 341
CC1CCCCN1c1ccc(-c2nc(-c3ccc(C(=O)O)c(F)c3)no2)cc1C(F)(F)F (stereo not drawn) [Example 19, 2-fluoro-4-{5-[4-(2-methylpiperidin-1-yl)-3-(trifluoromethyl)phenyl]-1,2,4-oxadiazol-3-yl}benzoic acid] | 110 | > 30000 | 347
Cc1ccccc1-c1ccc(-c2nc(-c3ccc(C(=O)O)c(F)c3)no2)cc1C(F)(F)F [Example 22, 2-fluoro-4-{5-[2′-methyl-2-(trifluoromethyl)biphenyl-4-yl]-1,2,4-oxadiazol-3-yl}benzoic acid] | 524 | > 20000 | 417
Cc1cscc1-c1ccc(-c2nc(-c3ccc(C(=O)O)c(F)c3)no2)cc1C(F)(F)F [Example 23, 2-fluoro-4-{5-[4-(4-methyl-3-thienyl)-3-(trifluoromethyl)phenyl]-1,2,4-oxadiazol-3-yl}benzoic acid] | 90 | 14900 | 197
Cc1cc(-c2nc(-c3ccc(C(=O)O)cc3F)no2)ccc1-c1cscc1C [Example 26, 3-fluoro-4-{5-[3-methyl-4-(4-methyl-3-thienyl)phenyl]-1,2,4-oxadiazol-3-yl}benzoic acid] | 172 | > 20000 | 360
CC1CCCCN1c1ccc(-c2nc(-c3ccc(C(=O)O)cc3F)no2)cc1C(F)(F)F (stereo not drawn) [Example 27, 3-fluoro-4-{5-[4-(2-methylpiperidin-1-yl)-3-(trifluoromethyl)phenyl]-1,2,4-oxadiazol-3-yl}benzoic acid] | 505 | > 20000 | 1100
COc1ncccc1-c1ccc(-c2nc(-c3ccc(C(=O)O)c(F)c3)no2)cc1C [Example 28, 2-fluoro-4-{5-[4-(2-methoxypyridin-3-yl)-3-methylphenyl]-1,2,4-oxadiazol-3-yl}benzoic acid] | 190 | > 30000 | 834
CC1CCCCN1c1ccc(-c2nc(-c3ccc(C(=O)O)c(F)c3)no2)cc1C#N (stereo not drawn) [Example 29, 4-{5-[3-cyano-4-(2-methylpiperidin-1-yl)phenyl]-1,2,4-oxadiazol-3-yl}-2-fluorobenzoic acid] | 70 | > 30000 | 430
CC1CCCCN1c1ccc(-c2nc(-c3ccc(C(=O)O)c(F)c3)no2)cc1NS(C)(=O)=O (stereo not drawn) [Example 30, 2-fluoro-4-(5-{4-(2-methylpiperidin-1-yl)-3-[(methylsulfonyl)amino]phenyl}-1,2,4-oxadiazol-3-yl)benzoic acid] | 40 | 5930 | 50
CC1CCCCN1c1ccc(-c2nc(-c3ccc(OCC(=O)O)c(F)c3)no2)cc1C(F)(F)F (stereo not drawn) [Example 47, (2-fluoro-4-{5-[4-(2-methylpiperidin-1-yl)-3-(trifluoromethyl)phenyl]-1,2,4-oxadiazol-3-yl}phenoxy)acetic acid] | 4 | 1000 | 40
Cc1ccccc1-c1ccc(-c2nc(-c3ccc(OCC(=O)O)c(F)c3)no2)cc1C [Example 48, {4-[5-(2,2′-dimethylbiphenyl-4-yl)-1,2,4-oxadiazol-3-yl]-2-fluorophenoxy}acetic acid] | 40 | 17000 | 129
Cc1ccccc1-c1ccc(-c2nc(-c3ccc(NCC(=O)O)c(F)c3)no2)cc1C [Example 56, N-{4-[5-(2,2′-dimethylbiphenyl-4-yl)-1,2,4-oxadiazol-3-yl]-2-fluorophenyl}glycine] | 10 | 14500 | 70
Cc1ccccc1-c1ccc(-c2nc(-c3ccc(C(=O)O)c(F)c3)no2)cc1COC(C)C [Example 59, 2-fluoro-4-{5-[2-(isopropoxymethyl)-2′-methylbiphenyl-4-yl]-1,2,4-oxadiazol-3-yl}benzoic acid] | 182 | 767 | 286
Cc1ccccc1-c1ccc(-c2nc(-c3ccc(C(=O)O)c(F)c3)no2)cc1CN(C)C [Example 62, 4-(5-{2-[(dimethylamino)methyl]-2′-methylbiphenyl-4-yl}-1,2,4-oxadiazol-3-yl)-2-fluorobenzoic acid, Hydrochloride salt] | 24 | 699 | 92
CCOCc1cc(-c2nc(-c3ccc(C(=O)O)c(F)c3)no2)ccc1-c1ccccc1C [Example 63, 4-{5-[2-(ethoxymethyl)-2′-methylbiphenyl-4-yl]-1,2,4-oxadiazol-3-yl}-2-fluorobenzoic acid] | 30 | 615 | 60
CCS(=O)(=O)Nc1cc(-c2nc(-c3ccc(C(=O)O)c(F)c3)no2)ccc1N1CCCCC1C (stereo not drawn) [Example 67, 4-{5-[3-[(ethylsulfonyl)amino]-4-(2-methylpiperidin-1-yl)phenyl]-1,2,4-oxadiazol-3-yl}-2-fluorobenzoic acid] | 67 | 1750 | 72
Cc1ccccc1-c1ccc(-c2nc(-c3ccc(C(=O)O)c(Cl)c3)no2)cc1C [Example 68, 2-chloro-4-[5-(2,2′-dimethylbiphenyl-4-yl)-1,2,4-oxadiazol-3-yl]benzoic acid] | 65 | > 30000 | 133
COCc1cc(-c2nc(-c3ccc(C(=O)O)c(Cl)c3)no2)ccc1-c1ccccc1C [Example 69, 2-chloro-4-{5-[2-(methoxymethyl)-2′-methylbiphenyl-4-yl]-1,2,4-oxadiazol-3-yl}benzoic acid] | 26 | 2630 | 34
CC1CCCCN1c1ccc(-c2nc(-c3ccc(C(=O)O)c(Cl)c3)no2)cc1NS(C)(=O)=O (stereo not drawn) [Example 70, 2-chloro-4-(5-{4-(2-methylpiperidin-1-yl)-3-[(methylsulfonyl)amino]phenyl}-1,2,4-oxadiazol-3-yl)benzoic acid] | 69 | 1410 | 57
CC1CCCCN1c1ccc(-c2nc(-c3ccc(C(=O)O)c(F)c3)no2)cc1NS(=O)(=O)N(C)C (stereo not drawn) [Example 73, 4-{5-[3-{[(dimethylamino)sulfonyl]amino}-4-(2-methylpiperidin-1-yl)phenyl]-1,2,4-oxadiazol-3-yl}-2-fluorobenzoic acid] | 213 | 2000 | 122
CCCS(=O)(=O)Nc1cc(-c2nc(-c3ccc(C(=O)O)c(F)c3)no2)ccc1N1CCCCC1C (stereo not drawn) [Example 74, 2-fluoro-4-(5-{4-(2-methylpiperidin-1-yl)-3-[(propylsulfonyl)amino]phenyl}-1,2,4-oxadiazol-3-yl)benzoic acid] | 443 | 1770 | 408
Cc1ccccc1-c1ccc(-c2nc(-c3ccc(C(=O)O)c(F)c3)no2)cc1CN1CCOCC1 [Example 75, 2-fluoro-4-{5-[2′-methyl-2-(morpholin-4-ylmethyl)biphenyl-4-yl]-1,2,4-oxadiazol-3-yl}benzoic acid, Trifluoroacetic acid salt] | 177 | 1350 | 182
CCc1ccccc1-c1ccc(-c2nc(-c3ccc(C(=O)O)c(F)c3)no2)cc1COC [Example 78, 4-{5-[2′-ethyl-2-(methoxymethyl)biphenyl-4-yl]-1,2,4-oxadiazol-3-yl}-2-fluorobenzoic acid] | 2 | 3030 | 15
